Test results reported in ChEMBL document CHEMBL1909046, “DrugMatrix in vitro pharmacology data”.

How the values were obtained:
Carbonic anhydrase 2 = Carbonic anhydrase 2 (Homo sapiens, UniProt P00918); experiment: DRUGMATRIX: Carbonic Anhydrase II enzyme inhibition (substrate: 4-Nitrophenyl acetate (4-NPA)); assay type: tissue-based, Erythrocyte; details: erythrocyte; Not Active = under 50% inhibition at 10 µM
[1] = target: 5-hydroxytryptamine receptor 1B (Rattus norvegicus, UniProt P28564); assay type: cell membranes, Wistar, Cerebral cortex, Membrane; also: in other assays of this panel Not Active means under 50% inhibition at 10 µM
5-hydroxytryptamine receptor 1B, sequence (P28564 whole entry): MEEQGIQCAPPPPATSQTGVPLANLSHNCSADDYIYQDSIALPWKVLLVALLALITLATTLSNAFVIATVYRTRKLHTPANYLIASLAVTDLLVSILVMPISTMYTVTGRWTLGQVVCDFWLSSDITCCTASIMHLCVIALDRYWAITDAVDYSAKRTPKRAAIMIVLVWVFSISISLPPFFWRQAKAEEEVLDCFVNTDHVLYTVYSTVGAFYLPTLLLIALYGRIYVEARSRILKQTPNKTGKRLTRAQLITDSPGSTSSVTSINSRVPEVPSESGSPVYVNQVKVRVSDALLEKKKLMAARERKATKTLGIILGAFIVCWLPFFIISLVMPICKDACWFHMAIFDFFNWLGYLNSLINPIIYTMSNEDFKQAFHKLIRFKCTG

Melanocortin receptor 4 = Melanocortin receptor 4 (Homo sapiens, UniProt P32245); assay type: cell membranes, Membrane; details: hek293; also: in other assays of this panel Not Active means under 50% inhibition at 10 µM
Melanocortin receptor 4, sequence (P32245 whole entry): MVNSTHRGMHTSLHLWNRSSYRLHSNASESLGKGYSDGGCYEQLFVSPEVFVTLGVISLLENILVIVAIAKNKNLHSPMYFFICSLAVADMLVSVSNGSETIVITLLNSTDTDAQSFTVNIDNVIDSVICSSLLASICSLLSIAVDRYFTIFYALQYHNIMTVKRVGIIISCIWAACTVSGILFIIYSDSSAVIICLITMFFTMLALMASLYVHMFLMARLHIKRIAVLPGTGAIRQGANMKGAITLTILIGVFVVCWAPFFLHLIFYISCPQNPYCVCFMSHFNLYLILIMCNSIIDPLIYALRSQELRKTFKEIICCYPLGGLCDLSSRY

Substance-K receptor = target: T1, Substance-K receptor (Homo sapiens, UniProt P21452); assay type: cell membranes, CHO, Membrane; details: cho; also: in other assays of this panel Not Active means under 50% inhibition at 10 µM
T1 sequence (P21452 whole entry): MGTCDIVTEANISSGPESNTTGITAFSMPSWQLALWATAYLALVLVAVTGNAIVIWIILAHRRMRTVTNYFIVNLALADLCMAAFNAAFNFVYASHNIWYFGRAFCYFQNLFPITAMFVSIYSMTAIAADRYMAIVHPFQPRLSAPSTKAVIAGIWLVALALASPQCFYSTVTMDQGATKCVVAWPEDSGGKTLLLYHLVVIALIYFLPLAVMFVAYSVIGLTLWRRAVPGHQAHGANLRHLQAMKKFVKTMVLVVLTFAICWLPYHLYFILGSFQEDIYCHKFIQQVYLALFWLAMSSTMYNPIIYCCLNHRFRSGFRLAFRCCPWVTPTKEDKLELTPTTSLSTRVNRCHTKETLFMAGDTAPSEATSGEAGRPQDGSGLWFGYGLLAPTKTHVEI

D(4) dopamine receptor = target: T2, D(4) dopamine receptor (Homo sapiens, UniProt P21917); experiment: DRUGMATRIX: Dopamine D4.2 radioligand binding (ligand: [3H] Spiperone); assay type: cell membranes, CHO-K1, Membrane; details: cho-k1; Not Active = under 50% inhibition at 10 µM
T2 sequence (P21917 whole entry): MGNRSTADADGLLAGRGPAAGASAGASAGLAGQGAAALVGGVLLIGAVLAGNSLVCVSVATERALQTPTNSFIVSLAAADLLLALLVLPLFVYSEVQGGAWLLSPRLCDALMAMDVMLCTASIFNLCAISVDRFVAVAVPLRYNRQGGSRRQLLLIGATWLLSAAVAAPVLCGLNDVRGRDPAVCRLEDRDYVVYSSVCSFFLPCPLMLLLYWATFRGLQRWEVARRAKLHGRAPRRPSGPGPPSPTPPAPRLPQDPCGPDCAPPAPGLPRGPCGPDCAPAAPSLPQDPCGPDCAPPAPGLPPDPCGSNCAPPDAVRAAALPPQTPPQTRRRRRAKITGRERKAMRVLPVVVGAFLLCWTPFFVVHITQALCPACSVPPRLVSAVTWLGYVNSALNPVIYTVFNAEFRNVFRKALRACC

[2] = target: Protein phosphatase 3 catalytic subunit alpha (Homo sapiens, UniProt Q08209); set-up: species or system Escherichia coli;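 also: inhibition of calcineurin (PP2B) enzyme activity, measured with DiFMUP as the substrate; in other assays of this panel Not Active means under 50% inhibition at 10 µM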
Glycine receptor = Glycine receptor (Rattus norvegicus, UniProt P22771+P24524+P07727+P20781); assay type: cell membranes, Wistar, Spinal cord, Membrane; also: in other assays of this panel Not Active means under 50% inhibition at 10 µM

Cc1ccc(C(=O)c2ccc(CC(=O)O)n2C)cc1 [TOLMETIN]
Not Active: IC50 (Carbonic anhydrase 2) | IC50 [1] | IC50 (Melanocortin receptor 4) | IC50 (Substance-K receptor) | IC50 (D(4) dopamine receptor) | IC50 [2] | IC50 (Glycine receptor)

CC(=O)OCC(COC(C)=O)OC(C)=O [TRIACETIN]
Not Active: IC50 (Carbonic anhydrase 2) | IC50 [1] | IC50 (Melanocortin receptor 4) | IC50 (Substance-K receptor) | IC50 (D(4) dopamine receptor) | IC50 [2] | IC50 (Glycine receptor)

CN1CCN(CCCN2c3ccccc3Sc3ccc(C(F)(F)F)cc32)CC1 [TRIFLUOPERAZINE]
Not Active: IC50 (Carbonic anhydrase 2) | IC50 [1] | IC50 (Melanocortin receptor 4) | IC50 (Substance-K receptor) | IC50 (D(4) dopamine receptor) | IC50 [2] | IC50 (Glycine receptor)

TRANSPLATIN
Not Active: IC50 (Carbonic anhydrase 2) | Ki (Carbonic anhydrase 2) | IC50 [1] | Ki [1] | IC50 (Melanocortin receptor 4) | Ki (Melanocortin receptor 4) | IC50 (Substance-K receptor) | Ki (Substance-K receptor) | IC50 (D(4) dopamine receptor) | Ki (D(4) dopamine receptor) | IC50 [2] | Ki [2] | IC50 (Glycine receptor) | Ki (Glycine receptor)

ZIRCONIUM(IV) CHLORIDE
Not Active: IC50 (Carbonic anhydrase 2) | Ki (Carbonic anhydrase 2) | IC50 [1] | Ki [1] | IC50 (Melanocortin receptor 4) | Ki (Melanocortin receptor 4) | IC50 (Substance-K receptor) | Ki (Substance-K receptor) | IC50 (D(4) dopamine receptor) | Ki (D(4) dopamine receptor) | IC50 [2] | Ki [2] | IC50 (Glycine receptor) | Ki (Glycine receptor)
